Data as given in patent publication US6949581B2, “Water-soluble mono-PEGylated tetrapyrrole derivatives for photodynamic therapy and method of production” (CeramOptec Industries, Inc., priority 2003, dated 2005).
Structures can show the parent of a compound that is named as a salt.

Tests used:
[1] = test system: HeLa (human cervix carcinoma cells); experiment: Phototoxicity in HeLa cells under irradiation at 662 nm, MTT assay; format: cell-based; settings: 30-minute incubation, 10 J/cm^2 irradiation
Experimental: Illumination was performed at 662 nm (Ceralas PDT laser, BioLitec AG, Germany; 150 mW/cm^2, 5-20 J/cm^2) after a 30-minute incubation period. Cell survival was measured using the MTT assay. Values are expressed as percentages of illuminated, but non-incubated controls. Experiments were performed in octuplets.

[2] = 4° C. in the dark, cited from earlier work
[3] = concentrated (>1%) solution cannot be generated by Nakazato technique; cited from earlier work

salt of pheophorbide a (5) with N-methyl-D-glucamine
IC50 phototoxicity [1]: 8.0 µg/mL
IC90 phototoxicity [1]: 22.0 µg/mL

trisodium lysyl-chlorin p6
stable in an aqueous solution ([2]; aqueous solution): ≤ 24 h
stable in solid form ([2]; solid form): up to 4 months

C=Cc1c(C)c2cc3nc(c4c5[nH]c(cc6nc(cc1[nH]2)C(C)=C6CC)c(C)c5C(=O)[C@@H]4C(=O)OC)[C@@H](CCC(=O)O)[C@@H]3C [sodium salt of pheophorbide a (4), sodium salt of pheophorbide a]
concentration of injectable solution in water that can be generated [3]: ≤ 1%
